# Data from patent US20050165074A1, “Amide derivatives as C-KIT modulators” (Ambit Biosciences Corporation, priority 2003, published 2005).
# Molecular target: KIT (JMminus) (Homo sapiens, UniProt P10721)
# Test: Binding constant (Kd) measurement, phage-displayed kinase competition binding assay, KIT (JMminus)
# Conditions: c-Kit, JMminus construct
# Text: (§1) The term “ND” represents non-determined values.
# KIT (JMminus), sequence (P10721 589-937 limits assumed): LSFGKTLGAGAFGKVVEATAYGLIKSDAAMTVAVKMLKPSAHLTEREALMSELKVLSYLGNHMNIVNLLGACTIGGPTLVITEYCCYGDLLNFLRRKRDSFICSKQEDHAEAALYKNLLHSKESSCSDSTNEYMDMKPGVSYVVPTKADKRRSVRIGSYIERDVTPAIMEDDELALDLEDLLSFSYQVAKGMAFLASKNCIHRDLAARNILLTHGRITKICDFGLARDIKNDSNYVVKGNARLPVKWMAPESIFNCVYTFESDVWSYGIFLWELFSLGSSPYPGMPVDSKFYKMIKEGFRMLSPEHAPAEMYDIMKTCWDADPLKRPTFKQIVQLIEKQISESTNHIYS
row,Kd [nM],SMILES
1,< 100,Cc1nn(C)c(Cl)c1C(=O)Nc1ccc(CC(=O)Nc2cc(C(C)(C)C)on2)cc1
2,< 100,CSc1ncc(Br)c(C(=O)Nc2ccc(CC(=O)Nc3cc(C(C)(C)C)on3)cc2)n1
3,< 100,CC(C)(C)c1cc(NC(=O)Cc2ccc(NC(=O)c3ccc4cnccc4n3)cc2)no1
4,< 100,Cn1cc(C(=O)Nc2ccc(CC(=O)Nc3cc(C(C)(C)C)on3)cc2)c2ccccc21
5,100 to 1000,CC(C)(C)c1cc(NC(=O)Cc2ccc(NC(=O)c3cccc4cccnc34)cc2)no1
6,< 100,CC(C)(C)c1cc(NC(=O)Cc2ccc(NC(=O)c3cnc4ccccc4c3)cc2)no1

# Molecular target: KIT (DKIN) (Homo sapiens, UniProt P10721)
# Test: Binding constant (Kd) measurement, phage-displayed kinase competition binding assay, KIT (DKIN)
# Conditions: c-Kit, DKIN construct
# Text: as §1
# KIT (DKIN), sequence (P10721 589-937 limits assumed): as above
row,SMILES,Kd [nM]
1,COc1ccc(CC(=O)Nc2cc(C(C)(C)C)no2)cc1,100 to 1000
2,COc1cccc2cc([C@H](C)C(=O)Nc3cc(C(C)(C)C)on3)ccc12,1000 to 10000
3,CC(C)(C)c1cc(NC(=O)Cc2ccc(F)cc2)on1,1000 to 10000

# Other lines, results leading:
row,Kd [nM],SMILES
1,100 to 1000,CC(C)(C)c1cc(NC(=O)Cc2ccc(OCc3ccccc3)cc2)on1
2,1000 to 10000,CC(C)(C)c1cc(NC(=O)Cc2ccc(Cl)cc2)on1
3,100 to 1000,CC(C)(C)c1cc(NC(=O)Cc2ccc(Br)cc2)on1
